Test results published in publication PMC9286316, “Importance of the Cyclic Cystine Knot Structural Motif for Immunosuppressive Effects of Cyclotides” (ACS Chemical Biology, 2021).

System: human PBMCs
Assay: Lymphocyte proliferation assay (CFSE, anti-CD3/anti-CD28 stimulated PBMC, flow cytometry)
Type: cell-based
Details: 72 h; for antiproliferative activity (Figure 2B): tested concentration range 1–100 μg/mL peptide, three biological replicates
Protocol: Blood of healthy donors was obtained from the Blood Transfusion Centre (University Medical Centre Freiburg, Freiburg Germany), and all experiments conducted on human material were approved by the ethics committee of the University Freiburg (55/14). Venous blood was centrifuged to isolate peripheral blood mononuclear cells on a LymphoPrep gradient (density: 1.077 g/cm^3, 20 min, 500 × g, 20 °C; Progen, Heidelberg, Germany). PBMCs were collected and washed twice with phosphate buffer saline (PBS; GE Healthcare, München), and cell viability and concentration were determined using the trypan blue exclusion test. Cells were cultured in RPMI 1640 medium supplemented with 10% heat-inactivated fetal calf serum, 2 mM L-glutamine, 100 U/mL penicillin, and […] streptomycin (all from Life Technologies, Paisley, UK) and cultured at 37 °C in a humidified incubator with a 5% CO2/95% air atmosphere.
Harvested PBMC were washed twice in cold PBS and resuspended in PBS at a concentration of 5 × 10^6 cells per mL. Carboxyfluorescein diacetate succinimidyl ester (CFSE; 5 μM; Sigma-Aldrich, St. Louis, MO) staining was performed to determine T-cell proliferation. Cells were stained with CFSE and incubated for 10 min at 37 °C. The staining reaction was stopped by washing twice with complete growth medium. Afterward, stained cells were stimulated with anti-human CD3 (clone OKT3) and anti-human CD28 (clone 28.6) mAbs (each 100 ng/mL; both from eBioscience, Frankfurt, Germany) treated as indicated in the figure legends, with medium alone, cyclosporine A (CsA; 5 μg/mL, purity ≥99%, Sandimmun 50 mg/mL, Novartis Pharma, Basel, Switzerland), camptothecin (CPT; 300 μM; purity >98%; Tocris, Bristol, UK), or in the presence of the indicated concentrations of peptides for 72 h at 37 °C in a humidified incubator with a 5% CO2/95% air atmosphere. Cell division progress was analyzed by flow cytometric analysis using a FACS Calibur analyzer (BD Bioscience, Becton Dickinson, Franklin Lakes, NJ). Data were generated using FlowJo software. For further analysis of FACS raw data Microsoft Excel and SPSS software (IBM, Version 22.0, Armonk, USA) were applied. All bioactivity data are represented as mean ± standard deviation (SD) for the indicated number of independent experiments. Statistical significance was determined by a one-way ANOVA followed by Dunnett’s post hoc pairwise comparisons. The asterisks (*p < 0.05, **p < 0.01, ***p < 0.001) represent significant differences from the respective control.

| Compound | antiproliferative activity (Figure 2B) | antiproliferative activity (Figure 1D) (tested concentration range up to 10 μM (∼29 μg/mL), mean ± SD of three biological replicates relative to stimulated control) |
| --- | --- | --- |
| CC(C)C[C@@H]1NC(=O)CNC(=O)[C@H](CC(N)=O)NC(=O)[C@H](CCCNC(=N)N)NC(=O)[C@H]([C@@H](C)O)NC(=O)[C@H](CSCC(N)=O)NC(=O)[C@H](C(C)C)NC(=O)[C@@H]2CCCN2C(=O)[C@H](Cc2c[nH]c3ccccc23)NC(=O)[C@H](CO)NC(=O)[C@H](CSCC(N)=O)NC(=O)[C@H](CCCCN)NC(=O)[C@H](CSCC(N)=O)NC(=O)CNC(=O)[C@@H]2CCCN2C(=O)[C@H]([C@@H](C)O)NC(=O)[C@H](CC(N)=O)NC(=O)[C@H](CSCC(N)=O)NC(=O)[C@H]([C@@H](C)O)NC(=O)CNC(=O)CNC(=O)[C@H](C(C)C)NC(=O)[C@H](CSCC(N)=O)NC(=O)[C@H]([C@@H](C)O)NC(=O)[C@H](CCC(=O)O)NC(=O)CNC(=O)[C@H](CSCC(N)=O)NC(=O)[C@H](C(C)C)NC(=O)[C@@H]2CCCN2C1=O [T20K-Acm] | total loss of antiproliferative activity | – |
| GLPVCGETCVGGTCNTPGCKCSWPVCTR↓N (head to tail) [cyclic reduced T20K] | – | lost activity |
| CSSC[C@@H]1NC(=O)CNC(=O)[C@@H]2CCCN2C(=O)[C@H]([C@@H](C)O)NC(=O)[C@H](CC(N)=O)NC(=O)[C@H](CSSC)NC(=O)[C@H]([C@@H](C)O)NC(=O)CNC(=O)CNC(=O)[C@H](C(C)C)NC(=O)[C@H](CSSC)NC(=O)[C@H]([C@@H](C)O)NC(=O)[C@H](CCC(=O)O)NC(=O)CNC(=O)[C@H](CSSC)NC(=O)[C@H](C(C)C)NC(=O)[C@@H]2CCCN2C(=O)[C@H](CC(C)C)NC(=O)CNC(=O)[C@H](CC(N)=O)NC(=O)[C@H](CCCNC(=N)N)NC(=O)[C@H]([C@@H](C)O)NC(=O)[C@H](CSSC)NC(=O)[C@H](C(C)C)NC(=O)[C@@H]2CCCN2C(=O)[C@H](Cc2c[nH]c3ccccc23)NC(=O)[C@H](CO)NC(=O)[C@H](CSSC)NC(=O)[C@H](CCCCN)NC1=O [T20K-S-methyl] | total loss of antiproliferative activity | – |
| CCN1C(=O)CC(SC[C@@H]2NC(=O)CNC(=O)[C@@H]3CCCN3C(=O)[C@H]([C@@H](C)O)NC(=O)[C@H](CC(N)=O)NC(=O)[C@H](CSC3CC(=O)N(CC)C3=O)NC(=O)[C@H]([C@@H](C)O)NC(=O)CNC(=O)CNC(=O)[C@H](C(C)C)NC(=O)[C@H](CSC3CC(=O)N(CC)C3=O)NC(=O)[C@H]([C@@H](C)O)NC(=O)[C@H](CCC(=O)O)NC(=O)CNC(=O)[C@H](CSC3CC(=O)N(CC)C3=O)NC(=O)[C@H](C(C)C)NC(=O)[C@@H]3CCCN3C(=O)[C@H](CC(C)C)NC(=O)CNC(=O)[C@H](CC(N)=O)NC(=O)[C@H](CCCNC(=N)N)NC(=O)[C@H]([C@@H](C)O)NC(=O)[C@H](CSC3CC(=O)N(CC)C3=O)NC(=O)[C@H](C(C)C)NC(=O)[C@@H]3CCCN3C(=O)[C@H](Cc3c[nH]c4ccccc34)NC(=O)[C@H](CO)NC(=O)[C@H](CSC3CC(=O)N(CC)C3=O)NC(=O)[C@H](CCCCN)NC2=O)C1=O (stereo partly shown) [T20K-Nem] | total loss of antiproliferative activity | – |
